Patent publication US6605424B1, “Method of detecting inhibitors of agonist-specific desensitization” (Duke University, priority 1989, dated 2003)
Several values for one entry are separate records, joined by “and”; a condition that tells them apart may be missing. Equal entries are not always repeated.

Columns and labels:
[1] = tested on: β2ARs in permeabilized A431 cells; assay: Phosphorylation of β2ARs in permeabilized A431 cells; type: cell-based, human; details: 1 μM heparin
Method: FIG. 8. Phosphorylation of β2ARs in permeabilized A431 cells. […] FIG. 8A: Autoradiogram obtained after a 10-day exposure at −70° C. FIG. 8B: Transverse densitometric scan of the autoradiogram.
β2ARs in permeabilized A431 cells were phosphorylated as follows. Permeabilized cells (4×10^8) in 10 ml of KG-A buffer containing 1 mCi (1 Ci=37 GBq) of [γ-^32P]ATP were incubated with or without 1 μM (−)-isoproterenol (and other compounds as indicated) for 10 min at 37° C. All buffers used in these experiments contained 5 μg of soybean tryspin inhibitor, 5 μg of leupeptin, and 10 μg of benzamidine per ml and 0.1 mM phenylmethylsulfonyl fluoride. […] After three identical washing steps, crude membranes were prepared as above.
Aliquots of the samples (≈60 fmol of β2ARs) were desalted over Sephadex G-50 and incubated for 2 hr at 20° C. with 200 pM of the ligand with or without 10 μM alprenolol. Free ligand was removed by desalting as above, and the samples were irradiated with UV light for 3 min. The samples were loaded on the same gel as the samples described above.

[2] = molecular target: T1, βAR kinase (Bos taurus, UniProt P21146); assay: Phosphorylation of rhodopsin (urea-treated rod outer segments) by βAR kinase; type: biochemical, bovine
T1 construct: βAR kinase was purified from bovine cerebral cortex; from tissue; host or cells: bovine cerebral cortex
T1 sequence (P21146 1-689): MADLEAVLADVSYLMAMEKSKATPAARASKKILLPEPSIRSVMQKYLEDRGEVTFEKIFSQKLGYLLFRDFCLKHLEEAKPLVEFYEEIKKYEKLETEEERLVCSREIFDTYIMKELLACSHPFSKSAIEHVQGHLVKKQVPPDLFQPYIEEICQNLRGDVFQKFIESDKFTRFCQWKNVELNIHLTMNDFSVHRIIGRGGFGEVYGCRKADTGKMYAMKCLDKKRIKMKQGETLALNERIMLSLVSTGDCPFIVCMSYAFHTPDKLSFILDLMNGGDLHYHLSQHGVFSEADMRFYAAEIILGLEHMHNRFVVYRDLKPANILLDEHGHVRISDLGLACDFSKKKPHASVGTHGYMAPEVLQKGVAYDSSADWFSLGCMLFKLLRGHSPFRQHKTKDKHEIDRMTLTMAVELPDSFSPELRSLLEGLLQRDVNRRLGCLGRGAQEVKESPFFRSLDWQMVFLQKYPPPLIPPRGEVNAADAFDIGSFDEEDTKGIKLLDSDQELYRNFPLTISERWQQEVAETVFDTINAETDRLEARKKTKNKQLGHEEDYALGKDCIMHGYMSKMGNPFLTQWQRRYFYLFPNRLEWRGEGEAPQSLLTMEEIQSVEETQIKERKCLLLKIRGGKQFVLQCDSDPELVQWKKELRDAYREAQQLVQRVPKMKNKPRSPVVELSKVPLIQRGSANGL
Method: βAR kinase was purified from bovine cerebral cortex by modification of procedure of Benovic et al (J. Biol. Chem. (1987) 262:9026-9032). Briefly, 250 g of bovine cerebral cortex were homogenized with a Brinkmann tissue disrupter and centrifuged (40,000×g, 30 min). The supernatant was then precipitated with 13-26% ammonium sulfate. This material was initially chromatographed on a Ultrogel AcA34 column equilibrated with 5 mM Tris-HCl, pH 7.5, 2 mM EDTA, 10 μg/ml leupeptin, 5 μg/ml pepstatin, 10 μg/ml benzamidine, 0.2 mM phenylmethylsulfonyl fluoride (buffer A). The peak activity was diluted with an equal volume of buffer A containing 0.04% Triton X-100 before being applied to a DEAE-Sephacel column. Elution was accomplished with a 0-80 mM NaCl gradient in buffer A containing 0.02% Triton X-100. The peak activity was then applied to a CM-Fractogel column and eluted with a 0-100 mM NaCl gradient in buffer A containing 0.02% Triton X-100. The purified kinase is stable at 4° C. for several months. For these studies the βAR kinase preparations were >75% pure.
Rod outer segments were prepared from bovine retinas by stepwise sucrose gradient centrifugation (Wilden et al Biochemistry (1982) 21:3014-3022). Rhodopsin kinase-free rod outer segments were prepared by treatment with 5 M urea (Shichi et al J. Biol. Chem. (1978) 253:7040-7046) and consisted of ˜95% rhodopsin, as assessed by Coomassie Blue staining of sodium dodecyl sulfate-polyacrylamide gels.
Urea-treated rod outer segments were phosphorylated with βAR kinase as follows. Urea-treated rod outer segments (˜4 μg of rhodopsin) were incubated with βAR kinase (˜0.1 μg) for 10-15 min at 30° C. in the presence of 40 mM Tris-HCl, pH 7.4, 10 mM NaCl, 5 mM MgCl2, 1.5 mM EDTA, and 65 μM ATP (˜1 cpm/fmol) (total reaction volume was 40 μl). Reactions were stopped by the addition of 40 μl of sodium dodecyl sulfate sample buffer (see below) followed by sodium dodecyl sulfate-polyacrylamide gel electrophoresis. After autoradiography, the phosphorylated rhodopsin bands were excised and counted.
Sodium dodecyl sulfate-polyacrylamide gel electrophoresis was performed by the method of Laemmli (Nature (1970) 227:680-685) using 10% homogeneous polyacrylamide slab gels. Sample buffer contained 8% sodium dodecyl sulfate, 10% glycerol, 5% 3-mercaptoethanol, 25 mM Tris-HCl, pH 6.5, and 0.003% bromphenol blue. After electrophoresis, gels were dried with a Bio-Rad gel dryer prior to autoradiography.

[3] = molecular target: T1, βAR kinase; assay: as above; type: biochemical, bovine; remark: listed apart in the source
[4] = tested on: β2ARs in permeabilized A431 cells; assay: Desensitization of β2ARs in permeabilized A431 cells; type: cell-based, human

Substance: heparin
- effect on basal phosphorylation of β2ARs [1]: not affecting basal phosphorylation
- reduction of isoproterenol-induced phosphorylation of β2ARs ([1]; 1 μM isoproterenol, 10 min, three experiments): 50-80%
- Hill coefficient of inhibition ([2]; data of FIG. 1): ~2
- IC50 ([2]; read-out: IC50 (concentration of compound which gave 50% inhibition of βAR kinase), rhodopsin as substrate): 150 nM
- IC50 (concentration of compound which gave 50% inhibition of βAR kinase) ([2]; rhodopsin as substrate, mean ± S.E.): 0.77 ± 0.10 µg/mL
- type of inhibition with respect to ATP ([3]; ATP 33 to 100 μM): mixed type inhibitor
- type of inhibition with respect to rhodopsin ([3]; rhodopsin 3 to 20 μM): competitive inhibitor
- Inhibition of Desensitization, % ([4]; 0.1 μM): 102 ± 16%
- effect on time course of desensitization ([4]; 100 nM heparin, 1 μM (−)-isoproterenol): almost completely abolished
- IC50 ([4]; 1 μM (−)-isoproterenol, 10 min, 37° C., read-out: IC50, inhibition of desensitization): 21 nM and 20 nM
- extent of inhibition of desensitization ([4]; at concentrations above 100 nM): virtually complete
